Laboratory results reported in patent US7414066B2, “Amide compounds and medications containing the same technical field” (Kowa Company Ltd., priority 1999, dated 2008).

Row | melting point | Structure (SMILES)
1 | 119 to 120 °C | CCSc1cc(C)nc(SCC)c1NC(=O)CCCSc1nc2ccccc2s1 [Compound No. 823, 4-(benzothiazol-2-ylthio)-N-[2,4-bis(ethylthio)-6-methyl-3-pyridyl]butanamide]
2 | 102 to 104 °C | CCSc1cc(C)nc(SCC)c1NC(=O)CCCCSc1nc2ccccc2s1 [Compound No. 824, 5-(benzothiazol-2-ylthio)-N-[2,4-bis(ethylthio)-6-methyl-3-pyridyl]pentanamide]
3 | 114 to 116 °C | CCSc1cc(C)nc(SCC)c1NC(=O)CCCCCCSc1nc2ccccc2s1 [Compound No. 826, 7-(benzothiazol-2-ylthio)-N-[2,4-bis(ethylthio)-6-methyl-3-pyridyl]heptanamide]
4 | 94 to 96 °C | CCSc1cc(C)nc(SCC)c1NC(=O)CCCCCCCSc1nc2ccccc2s1 [Compound No. 827, 8-(benzothiazol-2-ylthio)-N-[2,4-bis(ethylthio)-6-methyl-3-pyridyl]octanamide]
5 | 160 to 161 °C | CCSc1cc(C)nc(SCC)c1NC(=O)CCCSc1nc2ccccc2[nH]1 [Compound No. 833, 4-(benzimidazol-2-ylthio)-N-[2,4-bis(ethylthio)-6-methyl-3-pyridyl]butanamide]
6 | 163 to 165 °C | CCSc1cc(C)nc(SCC)c1NC(=O)CCCCSc1nc2ccccc2[nH]1 [Compound No. 834, 5-(benzimidazol-2-ylthio)-N-[2,4-bis(ethylthio)-6-methyl-3-pyridyl]pentanamide]
7 | 151 to 156 °C | CCSc1cc(C)nc(SCC)c1NC(=O)CCCCCCSc1nc2ccccc2[nH]1 [Compound No. 836, 7-(benzimidazol-2-ylthio)-N-[2,4-bis(ethylthio)-6-methyl-3-pyridyl]heptanamide]
8 | 166 to 168 °C | CCSc1cc(C)nc(SCC)c1NC(=O)CCCCCCCSc1nc2ccccc2[nH]1 [Compound No. 837, 8-(benzoimidazol-2-ylthio)-N-[2,4-bis(ethylthio)-6-methyl-3-pyridyl]octanamide]
9 | 129 to 130 °C | Cc1cc(SC(C)C)c(NC(=O)CCCCSc2nc3ccccc3o2)c(SC(C)C)n1 [Compound No. 844, 5-(benzoxazol-2-ylthio)-N-[2,4-bis(isopropylthio)-6-methyl-3-pyridyl]pentanamide]
10 | 76 to 78 °C | Cc1cc(SC(C)C)c(NC(=O)CCCCCCSc2nc3ccccc3o2)c(SC(C)C)n1 [Compound No. 846, 7-(benzoxazol-2-ylthio)-N-[2,4-bis(isopropylthio)-6-methyl-3-pyridyl]heptanamide]
11 | 117 to 118 °C | Cc1cc(SC(C)C)c(NC(=O)CSc2nc3ccccc3s2)c(SC(C)C)n1 [Compound No. 851, 2-(benzothiazol-2-ylthio)-N-[2,4-bis(isopropylthio)-6-methyl-3-pyridyl]acetamide]
12 | 116 to 117 °C | Cc1cc(SC(C)C)c(NC(=O)CCCSc2nc3ccccc3s2)c(SC(C)C)n1 [Compound No. 853, 4-(benzothiazol-2-ylthio)-N-[2,4-bis(isopropylthio)-6-methyl-3-pyridyl]butanamide]
13 | 107 to 109 °C | Cc1cc(SC(C)C)c(NC(=O)CCCCSc2nc3ccccc3s2)c(SC(C)C)n1 [Compound No. 854, 5-(benzothiazol-2-ylthio)-N-[2,4-bis(isopropylthio)-6-methyl-3-pyridyl]pentanamide]
14 | 84 to 86 °C | Cc1cc(SC(C)C)c(NC(=O)CCCCCSc2nc3ccccc3s2)c(SC(C)C)n1 [Compound No. 855, 6-(benzothiazol-2-ylthio)-N-[2,4-bis(isopropylthio)-6-methyl-3-pyridyl]hexanamide]

Further lines, the compound ahead of its results:

Row | Structure (SMILES) | melting point
15 | CSc1nccc(C)c1NC(=O)CCCCCSc1nc2ccccc2o1 [Compound No. 155, 6-(benzoxazol-2-ylthio)-N-(4-methyl-2-methylthio-3-pyridyl)hexanamide] | 122 to 124 °C
16 | CSc1nc(C)ccc1NC(=O)CSc1nc2ccccc2s1 [Compound No. 461, 2-(benzothiazol-2-ylthio)-N-(6-methyl-2-methylthio-3-pyridyl)acetamide] | 175 to 176 °C
17 | CSc1nc(C)ccc1NC(=O)CSc1nc2ccccc2[nH]1 [Compound No. 471, 2-(benzimidazol-2-ylthio)-N-(6-methyl-2-methylthio-3-pyridyl)acetamide] | 192 to 193 °C (dec.)
18 | CSc1cc(C)nc(SC)c1NC(=O)CCCCSc1nc2ccccc2o1 [Compound No. 784, 5-(benzoxazol-2-ylthio)-N-(2,4-bis(methylthio)-6-methyl-3-pyridyl)pentanamide] | 147 to 150 °C
19 | CSc1cc(C)nc(SC)c1NC(=O)CCCCCCSc1nc2ccccc2o1 [Compound No. 786, 7-(benzoxazol-2-ylthio)-N-[2,4-bis(methylthio)-6-methyl-3-pyridyl]heptanamide] | 137 to 139 °C
20 | CSc1cc(C)nc(SC)c1NC(=O)CCCCCCCSc1nc2ccccc2o1 [Compound No. 787, 8-(benzoxazol-2-ylthio)-N-[2,4-bis(methylthio)-6-methyl-3-pyridyl]octanamide] | 119 to 122 °C
21 | CSc1cc(C)nc(SC)c1NC(=O)CSc1nc2ccccc2s1 [Compound No. 791, 2-(benzothiazol-2-ylthio)-N-[2,4-bis(methylthio)-6-methyl-3-pyridyl)acetamide] | 178 to 179 °C
22 | CSc1cc(C)nc(SC)c1NC(=O)CCCCSc1nc2ccccc2s1 [Compound No. 794, 5-(benzothiazol-2-ylthio)-N-(2,4-bis(methylthio)-6-methyl-3-pyridyl)pentanamide] | 121 to 123 °C
23 | CSc1cc(C)nc(SC)c1NC(=O)CCCCCCCSc1nc2ccccc2s1 [Compound No. 797, 8-(benzthiazol-2-ylthio)-N-[2,4-bis(methylthio)-6-methyl-3-pyridyl)octanamide] | 104 to 108 °C
24 | CSc1cc(C)nc(SC)c1NC(=O)CCCCSc1nc2ccccc2[nH]1 [Compound No. 804, 5-(benzimidazol-2-ylthio)-N-[2,4-bis(methylthio)-6-methyl-3-pyridyl]pentanamide] | 176 to 177 °C
25 | CSc1cc(C)nc(SC)c1NC(=O)CCCCCCSc1nc2ccccc2[nH]1 [Compound No. 806, 7-(benzimidazol-2-ylthio)-N-[2,4-bis(methylthio)-6-methyl-3-pyridyl]heptanamide] | 189 to 192 °C
26 | CSc1cc(C)nc(SC)c1NC(=O)CCCCCCCSc1nc2ccccc2[nH]1 [Compound No. 807, 8-(benzimidazol-2-ylthio)-N-[2,4-bis(methylthio)-6-methyl-3-pyridyl]octanamide] | 186 to 187 °C
27 | CCSc1cc(C)nc(SCC)c1NC(=O)CCCCSc1nc2ccccc2o1 [Compound No. 814, 5-(benzoxazol-2-ylthio)-N-[2,4-bis(ethylthio)-6-methyl-3-pyridyl]pentanamide] | 122 to 123 °C
28 | CCSc1cc(C)nc(SCC)c1NC(=O)CCCCCCSc1nc2ccccc2o1 [Compound No. 816, 7-(benzoxazol-2-ylthio)-N-[2,4-bis(ethylthio)-6-methyl-3-pyridyl]heptanamide] | 103 to 105 °C
29 | CCSc1cc(C)nc(SCC)c1NC(=O)CCCCCCCSc1nc2ccccc2o1 [Compound No. 817, 8-(benzoxazol-2-ylthio)-N-[2,4-bis(ethylthio)-6-methyl-3-pyridyl]octanamide] | 82 to 84 °C
